These results are taken from patent US20200060276A1, “THIAZOLE COMPOUND AND HERBICIDE” (OAT Agrio Co., Ltd., priority 2017, published 2020).

Format in all cases: in vivo
In one assay the test system is Scirpus juncoides. Put plainly: Test for Herbicidal Effect in Flooding Treatment (#1), SCIJU. To be noted: for SCIJU #1 herbicidal effect (growth inhibition grade): flooding treatment at seeding, dose 2 kg/ha, visual observation on day 21; for SCIJU #1 herbicidal effect (growth inhibition rating 0-5): flooding treatment #1. In a few lines:
(§1)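 Visual scores from 0 (<10% inhibition) to 5 (≥90% or complete withering) were taken 21 days after treatment of glasshouse-grown plants. Seeds were sown in soil flooded for 24 h beforehand, and compound was applied dropwise onto the surface at 2 kg/ha as an acetone solution diluted in water with Tween 80.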

For assay [1], the system named is Echinochloa crus-galli (L.) P. Beauv. var. formosensis Ohwi. Kind of assay: Test for Herbicidal Effect in Flooding Treatment (#2), ECHDG at 2-2.5 leaf stage. To be noted: for ECHDG (2-2.5L) #2 herbicidal effect (growth inhibition grade): flooding treatment at 2-2.5 leaf stage, dose 0.2 kg/ha, visual observation on day 21; for ECHDG (2-2.5L) #2 herbicidal effect (growth inhibition rating 0-5): flooding treatment #2, 2-2.5 leaf stage. In a few lines:
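Scoring is a visual 0–5 scale of growth inhibition (0 below 10%, 5 at 90% or more or full withering), taken 21 days after treatment in a glasshouse. Dose was 0.2 kg/ha, applied as acetone/Tween 80 aqueous solution onto flooded soil once seedlings reached the 2–2.5 leaf stage.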

The test system is the same in assay [2]. Kind of assay: Test for Herbicidal Effect in Flooding Treatment (#1), ECHDG. To be noted: for ECHDG #1 herbicidal effect (growth inhibition grade): flooding treatment at seeding, dose 2 kg/ha, visual observation on day 21; for ECHDG #1 herbicidal effect (growth inhibition rating 0-5): flooding treatment #1. A digest of the protocol:
as §1

The next assay has as its system Monochoria vaginalis. Put plainly: Test for Herbicidal Effect in Flooding Treatment (#1), MONVA. To be noted: for MONVA #1 herbicidal effect (growth inhibition grade): flooding treatment at seeding, dose 2 kg/ha, visual observation on day 21; for MONVA #1 herbicidal effect (growth inhibition rating 0-5): flooding treatment #1. A digest of the protocol: as §1

Consider `O=S(=O)(Cc1c(Cl)cccc1OC(F)F)c1ncc(Cl)s1` [Compound 1C-42], for which the “SCIJU #1 herbicidal effect (growth inhibition grade)” value in the assay with Scirpus juncoides is 5 (Growth inhibition effect is equal to or greater than 90%, or complete withering is achieved). Moreover, in assay [1], the “ECHDG (2-2.5L) #2 herbicidal effect (growth inhibition grade)” value is on record as 5 (Growth inhibition effect is equal to or greater than 90%, or complete withering is achieved). Moreover, the “ECHDG #1 herbicidal effect (growth inhibition grade)” value in assay [2] is 5 (Growth inhibition effect is equal to or greater than 90%, or complete withering is achieved). The “MONVA #1 herbicidal effect (growth inhibition grade)” value in the assay on Monochoria vaginalis is on record as 5 (Growth inhibition effect is equal to or greater than 90%, or complete withering is achieved).

`CC(c1c(F)cccc1OCCC(F)(F)F)S(=O)(=O)c1ncc(Cl)s1` (racemic) [Compound 1C-149]: in the assay with Scirpus juncoides, the “SCIJU #1 herbicidal effect (growth inhibition grade)” value is recorded as 5 (Growth inhibition effect is equal to or greater than 90%, or complete withering is achieved). Further, the “ECHDG (2-2.5L) #2 herbicidal effect (growth inhibition grade)” value in assay [1] was 4 (Growth inhibition effect is equal to or greater than 70%, and less than 90%). For the same compound, the “ECHDG #1 herbicidal effect (growth inhibition grade)” value in assay [2] is given as 5 (Growth inhibition effect is equal to or greater than 90%, or complete withering is achieved). Further, the “MONVA #1 herbicidal effect (growth inhibition grade)” value in the assay on Monochoria vaginalis is 5 (Growth inhibition effect is equal to or greater than 90%, or complete withering is achieved).

In the case of `O=S(=O)(Cc1c(F)cc(F)cc1OC(F)F)c1ncc(Br)s1` [Compound 1C-156], the “SCIJU #1 herbicidal effect (growth inhibition grade)” value in the assay with Scirpus juncoides is given as 5 (Growth inhibition effect is equal to or greater than 90%, or complete withering is achieved). Also, the “ECHDG (2-2.5L) #2 herbicidal effect (growth inhibition grade)” value in assay [1] is reported as 5 (Growth inhibition effect is equal to or greater than 90%, or complete withering is achieved). The “ECHDG #1 herbicidal effect (growth inhibition grade)” value in assay [2] was 5 (Growth inhibition effect is equal to or greater than 90%, or complete withering is achieved). Moreover, the “MONVA #1 herbicidal effect (growth inhibition grade)” value in the assay on Monochoria vaginalis was 5 (Growth inhibition effect is equal to or greater than 90%, or complete withering is achieved).

Turning to `O=S(=O)(Cc1c(F)cccc1OCC(F)F)c1ncc(Cl)s1` [Compound 1C-50], the “SCIJU #1 herbicidal effect (growth inhibition grade)” value in the assay on Scirpus juncoides is listed as 5 (Growth inhibition effect is equal to or greater than 90%, or complete withering is achieved). Also, the “ECHDG (2-2.5L) #2 herbicidal effect (growth inhibition grade)” value in assay [1] is 5 (Growth inhibition effect is equal to or greater than 90%, or complete withering is achieved). In addition, in assay [2], the “ECHDG #1 herbicidal effect (growth inhibition grade)” value is recorded as 5 (Growth inhibition effect is equal to or greater than 90%, or complete withering is achieved). Moreover, the “MONVA #1 herbicidal effect (growth inhibition grade)” value in the assay with Monochoria vaginalis is on record as 5 (Growth inhibition effect is equal to or greater than 90%, or complete withering is achieved).

On to `O=S(=O)(Cc1c(F)cccc1OCC(F)(F)C(F)F)c1ncc(Cl)s1` [Compound 1C-60, 5-chloro-2-{[2-(2,2,3,3-tetrafluoropropoxy)-6-fluorophenyl][methanesulfonyl]}-1,3-thiazole], for which the “SCIJU #1 herbicidal effect (growth inhibition grade)” value with Scirpus juncoides is listed as 5 (Growth inhibition effect is equal to or greater than 90%, or complete withering is achieved). In addition, the “ECHDG (2-2.5L) #2 herbicidal effect (growth inhibition grade)” value in assay [1] was 5 (Growth inhibition effect is equal to or greater than 90%, or complete withering is achieved). The “ECHDG #1 herbicidal effect (growth inhibition grade)” value in assay [2] is given as 5 (Growth inhibition effect is equal to or greater than 90%, or complete withering is achieved). Besides, the “MONVA #1 herbicidal effect (growth inhibition grade)” value in the assay with Monochoria vaginalis is given as 5 (Growth inhibition effect is equal to or greater than 90%, or complete withering is achieved).

Regarding `COc1cccc(Cl)c1C[S+]([O-])c1ncc(Br)s1` (centres unmarked) [Compound 1B-17], the “SCIJU #1 herbicidal effect (growth inhibition rating 0-5)” value with Scirpus juncoides is on record as 5 (Growth inhibition effect is equal to or greater than 90%, or complete withering is achieved). For the same compound, in assay [1], the “ECHDG (2-2.5L) #2 herbicidal effect (growth inhibition rating 0-5)” value was 5 (Growth inhibition effect is equal to or greater than 90%, or complete withering is achieved). In assay [2], the “ECHDG #1 herbicidal effect (growth inhibition rating 0-5)” value was 5 (Growth inhibition effect is equal to or greater than 90%, or complete withering is achieved). In addition, in the assay on Monochoria vaginalis, the “MONVA #1 herbicidal effect (growth inhibition rating 0-5)” value is 3 (Growth inhibition effect equal to or greater than 50%, and less than 70%).

`[O-][S+](Cc1c(F)cccc1OCC(F)(F)C(F)F)c1ncc(Cl)s1` (centres unmarked) [Compound 1B-13]: the “SCIJU #1 herbicidal effect (growth inhibition rating 0-5)” value in the assay with Scirpus juncoides is 5 (Growth inhibition effect is equal to or greater than 90%, or complete withering is achieved). Besides, the “ECHDG (2-2.5L) #2 herbicidal effect (growth inhibition rating 0-5)” value in assay [1] was 2 (Growth inhibition effect is equal to or greater than 30%, and less than 50%). Besides, the “ECHDG #1 herbicidal effect (growth inhibition rating 0-5)” value in assay [2] is given as 5 (Growth inhibition effect is equal to or greater than 90%, or complete withering is achieved). In the assay on Monochoria vaginalis, the “MONVA #1 herbicidal effect (growth inhibition rating 0-5)” value was 5 (Growth inhibition effect is equal to or greater than 90%, or complete withering is achieved).

Regarding `[2H]C([2H])(c1c(Cl)ccc(OC)c1F)S(=O)(=O)c1ncc(Cl)s1` [Compound 1C-136], in the assay on Scirpus juncoides, the “SCIJU #1 herbicidal effect (growth inhibition grade)” value is recorded as 5 (Growth inhibition effect is equal to or greater than 90%, or complete withering is achieved). For the same compound, the “ECHDG (2-2.5L) #2 herbicidal effect (growth inhibition grade)” value in assay [1] is 5 (Growth inhibition effect is equal to or greater than 90%, or complete withering is achieved). Besides, the “ECHDG #1 herbicidal effect (growth inhibition grade)” value in assay [2] is 5 (Growth inhibition effect is equal to or greater than 90%, or complete withering is achieved). In addition, the “MONVA #1 herbicidal effect (growth inhibition grade)” value in the assay on Monochoria vaginalis was 5 (Growth inhibition effect is equal to or greater than 90%, or complete withering is achieved).

`[O-][S+](Cc1ccccc1OC(F)F)c1ncc(Cl)s1` (centres unmarked) [Compound 1B-2]: the “SCIJU #1 herbicidal effect (growth inhibition rating 0-5)” value in the assay on Scirpus juncoides is 5 (Growth inhibition effect is equal to or greater than 90%, or complete withering is achieved). Besides, in assay [1], the “ECHDG (2-2.5L) #2 herbicidal effect (growth inhibition rating 0-5)” value is on record as 5 (Growth inhibition effect is equal to or greater than 90%, or complete withering is achieved). The “ECHDG #1 herbicidal effect (growth inhibition rating 0-5)” value in assay [2] is 5 (Growth inhibition effect is equal to or greater than 90%, or complete withering is achieved). The “MONVA #1 herbicidal effect (growth inhibition rating 0-5)” value in the assay on Monochoria vaginalis is listed as 5 (Growth inhibition effect is equal to or greater than 90%, or complete withering is achieved).

For the compound `CCOc1ccc(Cl)cc1C(F)(F)S(=O)(=O)c1ncc(Cl)s1` [Compound 1C-138], in the assay on Scirpus juncoides, the “SCIJU #1 herbicidal effect (growth inhibition grade)” value is 5 (Growth inhibition effect is equal to or greater than 90%, or complete withering is achieved). Also, the “ECHDG (2-2.5L) #2 herbicidal effect (growth inhibition grade)” value in assay [1] is 3 (Growth inhibition effect equal to or greater than 50%, and less than 70%). Moreover, the “ECHDG #1 herbicidal effect (growth inhibition grade)” value in assay [2] is reported as 5 (Growth inhibition effect is equal to or greater than 90%, or complete withering is achieved). Besides, the “MONVA #1 herbicidal effect (growth inhibition grade)” value in the assay on Monochoria vaginalis is recorded as 5 (Growth inhibition effect is equal to or greater than 90%, or complete withering is achieved).

As for `CC(c1c(F)cccc1OCC(F)(F)C(F)F)S(=O)(=O)c1ncc(Br)s1` (centres unmarked) [Compound 1C-165], in the assay on Scirpus juncoides, the “SCIJU #1 herbicidal effect (growth inhibition grade)” value is on record as 5 (Growth inhibition effect is equal to or greater than 90%, or complete withering is achieved). Moreover, the “ECHDG (2-2.5L) #2 herbicidal effect (growth inhibition grade)” value in assay [1] is 3 (Growth inhibition effect equal to or greater than 50%, and less than 70%). In addition, the “ECHDG #1 herbicidal effect (growth inhibition grade)” value in assay [2] was 5 (Growth inhibition effect is equal to or greater than 90%, or complete withering is achieved). Besides, the “MONVA #1 herbicidal effect (growth inhibition grade)” value in the assay with Monochoria vaginalis is recorded as 5 (Growth inhibition effect is equal to or greater than 90%, or complete withering is achieved).
